Reference: ChEMBL document CHEMBL1136317, “A general synthesis of 1-aryl carbamoyl-2-alkyl-4-aryl substituted semicarbazides as nonbasic factor Xa inhibitors” (Bioorg Med Chem Lett, 2003)

Molecular target: Coagulation factor X (Homo sapiens, UniProt P00742)
Test: Inhibitory activity against human Coagulation factor X in a purified enzyme system

Sequence of Coagulation factor X (P00742 41-179 limits assumed): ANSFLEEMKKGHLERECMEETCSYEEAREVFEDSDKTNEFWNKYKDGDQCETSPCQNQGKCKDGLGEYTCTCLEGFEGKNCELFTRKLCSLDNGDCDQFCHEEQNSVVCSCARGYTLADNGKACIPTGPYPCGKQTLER
Sequence of Coagulation factor X (P00742 235-488 limits assumed): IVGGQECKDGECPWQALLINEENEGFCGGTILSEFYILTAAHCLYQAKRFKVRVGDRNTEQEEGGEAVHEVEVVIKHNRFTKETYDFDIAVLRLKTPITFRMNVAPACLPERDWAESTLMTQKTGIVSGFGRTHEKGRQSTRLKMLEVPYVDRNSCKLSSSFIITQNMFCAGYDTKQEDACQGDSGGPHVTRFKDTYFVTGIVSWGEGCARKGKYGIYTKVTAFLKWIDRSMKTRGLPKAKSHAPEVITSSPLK

| SMILES | IC50 |
| --- | --- |
| CC(NC(=O)Nc1ccc(Cl)cc1)C(=O)Nc1ccc(N2CCOCC2=O)cc1 (single isomer, unassigned) | 78 nM |
| CCC(NC(=O)Nc1ccc(Cl)cc1)C(=O)Nc1ccc(N2CCOCC2=O)cc1 (single isomer, unassigned) | 17 nM |
